Where two headings read alike, the source gives them in different places.
Columns and labels:
human p38 kinase alpha = biological target: T1, human p38 kinase alpha (Homo sapiens, UniProt Q16539); assay: p38 kinase in vitro assay, phosphorylation of biotinylated PHAS-I with gamma 32P-ATP; format: biochemical; conditions: for inhibition at 1 µM / inhibition at 10 µM: read-out: P38 alpha kinase % inhib @ conc.
T1 construct: The coding region of the human p38a cDNA was obtained by PCR-amplification from RNA isolated from the human monocyte cell line THP.1; GST (N); made in house; host or cells: E. coli DH10B
Procedure, shortened: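 MKK6-activated human p38α phosphorylates biotinylated PHAS-I with γ-32P-ATP in 25 mM HEPES pH 7.5, 10 mM Mg acetate, 50 μM unlabeled ATP, 1% DMSO, 30 °C for 1 h or overnight. Compounds at 100–0.001 μM (10-fold steps, triplicate); substrate captured on streptavidin filter plates and counted by scintillation.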

TNF-α = assay: LPS stimulation of TNF production by U937 cells; format: cell-based, human; conditions: Homo sapiens; for inhibition at 1 µM: U-937, @ 1.0 uM, read-out: U937 Cell % inhib @ conc.
Procedure, shortened: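 PMA-differentiated human U937 cells (20 ng/ml PMA, 24 h, then 24-48 h rest) at 2 million cells/ml, 0.1% DMSO final, stimulated with E. coli LPS (100 ng/ml final) for 4 h at 37° C. TNF-α in medium measured by ELISA; IC50 in μM.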

[1] = read-out: P38 alpha kinase IC50
[2] = p38α in vitro, PHAS-I assay procedure, read-out: p38^1 IC50
[3] = U-937, LPS-stimulated U937 cells, read-out: U937 IC50
[4] = U-937, TNF production, LPS-stimulated human U937 cells, read-out: U937 Cell IC50

T1 sequence (Q16539 whole entry): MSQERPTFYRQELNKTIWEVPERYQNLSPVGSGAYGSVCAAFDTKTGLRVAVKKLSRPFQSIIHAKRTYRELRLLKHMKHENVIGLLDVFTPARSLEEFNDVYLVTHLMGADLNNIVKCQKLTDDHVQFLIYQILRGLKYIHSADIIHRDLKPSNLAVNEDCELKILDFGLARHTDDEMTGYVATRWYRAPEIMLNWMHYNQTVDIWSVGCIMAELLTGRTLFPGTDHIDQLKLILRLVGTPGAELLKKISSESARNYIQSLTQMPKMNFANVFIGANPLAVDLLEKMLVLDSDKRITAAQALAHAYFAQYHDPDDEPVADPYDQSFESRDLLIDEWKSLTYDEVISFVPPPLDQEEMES

Row | Compound | IC50 (human p38 kinase alpha; [1]) [nM] | inhibition at 1 µM (TNF-α) [%] | other results
1 | C[C@@H](NC(=O)c1ccc(I)cc1)c1[nH]nc(-c2ccc(F)cc2)c1-c1ccncc1 [Example B-0363] | 4670 | 25 | –
2 | O=C(NCc1[nH]nc(-c2ccc(F)cc2)c1-c1ccncc1)c1cnc2ccccc2n1 [Example B-0206] | 5760 | 14 | –
3 | C#CCn1cc(-c2ccncc2)c(-c2ccc(F)cc2)n1 [Example A-294, 4-[3-(4-fluorophenyl)-1-(2-propynyl)-1H-pyrazol-4-yl]pyridine] | – | – | IC50 (human p38 kinase alpha; [2]): 15 nM; IC50 (TNF-α; [3]): 500 nM
4 | CCN(CC)CCn1cc(-c2ccnc(NCc3ccc(F)cc3)c2)c(-c2ccc(F)cc2)n1 [Example A-279, 4-[1-[2-(diethylamino)ethyl]-3-(4-fluorophenyl)-1H-pyrazol-4-yl]-N-[(4-fluorophenyl)methyl]-2-pyridinamine] | – | – | IC50 (human p38 kinase alpha; [2]): 5 nM; IC50 (TNF-α; [3]): 700 nM
5 | COC(=O)CCCCCCC(=O)NCc1[nH]nc(-c2ccc(F)cc2)c1-c1ccncc1 [Example B-0088] | – | 9 | inhibition at 1 µM (human p38 kinase alpha): 96%
6 | CCS(=O)(=O)N[C@H](C)c1[nH]nc(-c2ccc(F)cc2)c1-c1ccncc1 [Example B-0395] | 87 | 48 | –
7 | Cc1c(C)c(S(=O)(=O)NCc2[nH]nc(-c3ccc(F)cc3)c2-c2ccncc2)c(C)c2c1OC(C)(C)CC2 [Example B-0257] | 1710 | 11 | –
8 | CC(C)NC(=O)NCc1[nH]nc(-c2ccc(F)cc2)c1-c1ccncc1 [Example B-0149] | 1150 | – | IC50 (TNF-α; [4]): 10000 nM
9 | CCCNC(=O)N[C@H](C)c1[nH]nc(-c2ccc(F)cc2)c1-c1ccncc1 [Example B-0413] | 180 | 55 | –
10 | C[C@@H](NC(=O)N1CCOCC1)c1[nH]nc(-c2ccc(F)cc2)c1-c1ccncc1 [Example B-0405] | 790 | 30 | –
11 | C[C@@H](NC(=O)c1cc2ccccc2s1)c1[nH]nc(-c2ccc(F)cc2)c1-c1ccncc1 [Example B-0496] | 830 | 16 | –
12 | CC(C)S(=O)(=O)NCc1[nH]nc(-c2ccc(F)cc2)c1-c1ccncc1 [Example B-0106] | – | – | inhibition at 1 µM (human p38 kinase alpha): 62%; IC50 (TNF-α; [4]): 5000 nM
13 | O=S(=O)(NCc1[nH]nc(-c2ccc(F)cc2)c1-c1ccncc1)c1ccccc1C(F)(F)F [Example B-0236] | 77 | 46 | –
14 | CC(C)(C)c1ccc(S(=O)(=O)NCc2[nH]nc(-c3ccc(F)cc3)c2-c2ccncc2)cc1 [Example B-0099] | – | – | inhibition at 1 µM (human p38 kinase alpha): 43%; IC50 (TNF-α; [4]): > 1000 nM
15 | O=C(NCc1[nH]nc(-c2ccc(F)cc2)c1-c1ccncc1)C1CC1 [Example B-0089] | 40 | – | IC50 (TNF-α; [4]): 3330 nM
16 | C[C@@H](NC(=O)c1ccc(Cl)cc1)c1[nH]nc(-c2ccc(F)cc2)c1-c1ccncc1 [Example B-0493] | 300 | 36 | –
17 | C[C@@H](NC(=O)N(C)C)c1[nH]nc(-c2ccc(F)cc2)c1-c1ccncc1 [Example B-0407] | 760 | 27 | –
18 | C[C@@H](NC(=O)C1CCCC1)c1[nH]nc(-c2ccc(F)cc2)c1-c1ccncc1 [Example B-0376] | 2990 | 12 | –
19 | CNC(=O)N[C@H](C)c1[nH]nc(-c2ccc(F)cc2)c1-c1ccncc1 [Example B-0408] | 500 | 50 | –
20 | COc1cc(NC(=O)NCc2[nH]nc(-c3ccc(F)cc3)c2-c2ccncc2)cc(OC)c1OC [Example B-0191] | – | 29 | inhibition at 1 µM (human p38 kinase alpha): 40%
21 | C[C@@H](NS(=O)(=O)c1ccc(F)cc1F)c1[nH]nc(-c2ccc(F)cc2)c1-c1ccncc1 [Example B-0390] | 89 | 55 | –
22 | O=S(=O)(/C=C\c1ccccc1)NCc1[nH]nc(-c2ccc(F)cc2)c1-c1ccncc1 [Example B-0119] | – | – | inhibition at 10 µM (human p38 kinase alpha): 89%; IC50 (TNF-α; [4]): 2780 nM
23 | O=C(NCc1[nH]nc(-c2ccc(F)cc2)c1-c1ccncc1)c1cccc(Cl)c1 [Example B-0300] | 780 | 32 | –
24 | C[C@@H](NS(=O)(=O)[C@@]12CC[C@H](CC1=O)C2(C)C)c1[nH]nc(-c2ccc(F)cc2)c1-c1ccncc1 [Example B-0472] | 190 | 54 | –
25 | Cc1ccc(S(=O)(=O)N[C@@H](Cc2ccccc2)C(=O)N[C@H](C)c2[nH]nc(-c3ccc(F)cc3)c2-c2ccncc2)cc1 [Example B-0383] | 1430 | 10 | –
26 | C[C@@H](NS(=O)(=O)c1ccccc1Cl)c1[nH]nc(-c2ccc(F)cc2)c1-c1ccncc1 [Example B-0463] | 52 | 95 | –

Row | Compound | IC50 (human p38 kinase alpha; [1]) [nM] | inhibition at 1 µM (TNF-α) [%] | other results
27 | CC(C)c1ccc(S(=O)(=O)N[C@H](C)c2[nH]nc(-c3ccc(F)cc3)c2-c2ccncc2)cc1 [Example B-0446] | 780 | 80 | –
28 | CCCC(CCC)C(=O)NCc1[nH]nc(-c2ccc(F)cc2)c1-c1ccncc1 [Example B-0057] | – | 29 | inhibition at 1 µM (human p38 kinase alpha): 96%
29 | C[C@@H](NS(=O)(=O)c1ccc(F)cc1Cl)c1[nH]nc(-c2ccc(F)cc2)c1-c1ccncc1 [Example B-0449] | 830 | 81 | –
30 | CC(C)OC(=O)N[C@H](C)c1[nH]nc(-c2ccc(F)cc2)c1-c1ccncc1 [Example B-0429] | 270 | 45 | –
31 | Cc1cccc(C)c1NC(=O)NCc1[nH]nc(-c2ccc(F)cc2)c1-c1ccncc1 [Example B-0168] | – | – | inhibition at 1 µM (human p38 kinase alpha): 44%; IC50 (TNF-α; [4]): 2360 nM
32 | C[C@@H](NS(=O)(=O)c1cccc2cccnc12)c1[nH]nc(-c2ccc(F)cc2)c1-c1ccncc1 [Example B-0443] | 2010 | 71 | –
33 | O=C(NCc1[nH]nc(-c2ccc(F)cc2)c1-c1ccncc1)c1ccncc1 [Example B-0199] | 1340 | 3 | –
34 | CC(C)COC(=O)N[C@H](C)c1[nH]nc(-c2ccc(F)cc2)c1-c1ccncc1 [Example B-0382] | 410 | 32 | –
35 | CCCOC(=O)N[C@H](C)c1[nH]nc(-c2ccc(F)cc2)c1-c1ccncc1 [Example B-0425] | 260 | 54 | –
36 | O=C(NCc1[nH]nc(-c2ccc(F)cc2)c1-c1ccncc1)c1ccc(F)c(C(F)(F)F)c1 [Example B-0287] | 4000 | 22 | –
37 | O=S(=O)(NCc1[nH]nc(-c2ccc(F)cc2)c1-c1ccncc1)c1ccc(S(=O)(=O)c2ccccc2)s1 [Example B-0263] | 620 | 64 | –
38 | O=S(=O)(NCc1[nH]nc(-c2ccc(F)cc2)c1-c1ccncc1)c1ccc(F)cc1 [Example B-0104] | – | – | inhibition at 1 µM (human p38 kinase alpha): 56%; IC50 (TNF-α; [4]): 2780 nM
39 | COc1ccccc1C(=O)N[C@H](C)c1[nH]nc(-c2ccc(F)cc2)c1-c1ccncc1 [Example B-0367] | 1000 | 23 | –
40 | COc1ccc(OC)c(S(=O)(=O)N[C@H](C)c2[nH]nc(-c3ccc(F)cc3)c2-c2ccncc2)c1 [Example B-0457] | 89 | 81 | –
41 | O=[N+]([O-])c1cccc(S(=O)(=O)NCc2[nH]nc(-c3ccc(F)cc3)c2-c2ccncc2)c1 [Example B-0114] | – | – | inhibition at 1 µM (human p38 kinase alpha): 45%; IC50 (TNF-α; [4]): 3920 nM
42 | O=[N+]([O-])c1cc(S(=O)(=O)NCc2[nH]nc(-c3ccc(F)cc3)c2-c2ccncc2)ccc1Cl [Example B-0102] | – | 15 | inhibition at 1 µM (human p38 kinase alpha): 81%
43 | C[C@@H](NC(=O)NCc1ccccc1)c1[nH]nc(-c2ccc(F)cc2)c1-c1ccncc1 [Example B-0403] | 1770 | – | IC50 (TNF-α; [4]): 2420 nM
44 | O=S(=O)(NCc1[nH]nc(-c2ccc(F)cc2)c1-c1ccncc1)c1ccc(F)c(Cl)c1 [Example B-0242] | < 100 | 78 | –
45 | O=C(NCc1[nH]nc(-c2ccc(F)cc2)c1-c1ccncc1)c1ccc(Cl)nc1 [Example B-0052] | – | 15 | inhibition at 1 µM (human p38 kinase alpha): 92%
46 | COc1ccc(NC(=O)NCc2[nH]nc(-c3ccc(F)cc3)c2-c2ccncc2)cc1 [Example B-0190] | – | 31 | inhibition at 10 µM (human p38 kinase alpha): 59%
47 | O=C(NCc1[nH]nc(-c2ccc(F)cc2)c1-c1ccncc1)c1ccc(Cl)cc1 [Example B-0268] | 3390 | 19 | –
48 | C[C@@H](NC(=O)c1ccc(C(F)(F)F)cc1F)c1[nH]nc(-c2ccc(F)cc2)c1-c1ccncc1 [Example B-0508] | 2000 | 48 | –
49 | O=S(=O)(NCc1[nH]nc(-c2ccc(F)cc2)c1-c1ccncc1)c1ccc(Cl)cc1 [Example B-0225] | 47 | 37 | –
50 | O=C(NCc1[nH]nc(-c2ccc(F)cc2)c1-c1ccncc1)c1cc(Cl)cc(Cl)c1 [Example B-0273] | 5030 | 13 | –
51 | CN(C)CCn1cc(-c2ccnc(CCc3ccc(F)cc3)c2)c(-c2ccc(F)cc2)n1 [Example A-275, 3-(4-fluorophenyl)-4-[2-[2-(4-fluorophenyl)ethyl]-4-pyridinyl]-N,N-dimethyl-1H-pyrazole-1-ethanamine] | – | – | IC50 (human p38 kinase alpha; [2]): 10100 nM; IC50 (TNF-α; [3]): > 10000 nM
52 | O=C(NCc1[nH]nc(-c2ccc(F)cc2)c1-c1ccncc1)Nc1ccc(OC(F)(F)F)cc1 [Example B-0172] | – | 11 | inhibition at 10 µM (human p38 kinase alpha): 16%
